This note sets out measurements from US10280159B2 (AbbVie Deutschland GmbH & Co. KG, priority 2015, dated 2019).

Structures are written as SMILES.

Holding throughout (format): cell-based
In one test the target is T1, human S1PR5 (Homo sapiens, UniProt Q9H228).
T1 construct: host or cells: CHO-K1
The test can be described thus: Intracellular Ca2+ release (FLIPR) agonist potency, S1P5. To be noted: recombinant CHO-K1 cells expressing human S1PR5, aequorin, Gq/i5; Calcium 5 FLIPR; read-out: S1P5 EC50 range. The method, boiled down: (§1)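 CHO-K1 cells recombinantly expressing the human S1P receptor plus aequorin and Gq/i5 were grown in F-12 Ham with 10% FBS. Agonist-induced intracellular Ca2+ release was read on a FLIPR Tetra. EC50 came from nonlinear fits of raw fluorescence normalized to the phospho-fingolimod reference curve.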

The next test deals with T2, human S1PR4 (Homo sapiens, UniProt O95977).
T2 construct: host or cells: CHO-K1
T2 sequence (O95977 1-384): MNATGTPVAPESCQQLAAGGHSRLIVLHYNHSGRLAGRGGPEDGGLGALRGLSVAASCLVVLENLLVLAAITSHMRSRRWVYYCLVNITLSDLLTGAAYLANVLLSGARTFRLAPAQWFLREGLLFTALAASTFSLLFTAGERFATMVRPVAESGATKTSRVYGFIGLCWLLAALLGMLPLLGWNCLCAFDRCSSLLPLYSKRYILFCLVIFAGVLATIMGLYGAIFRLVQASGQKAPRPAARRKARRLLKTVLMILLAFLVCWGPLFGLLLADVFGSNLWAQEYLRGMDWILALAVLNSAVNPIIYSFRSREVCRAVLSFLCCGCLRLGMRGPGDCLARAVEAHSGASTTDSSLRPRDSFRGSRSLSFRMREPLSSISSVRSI
The test can be described thus: Intracellular Ca2+ release (FLIPR) agonist potency, S1P4. To be noted: recombinant CHO-K1 cells expressing human S1PR4, aequorin, Gq/i5; Calcium 5 FLIPR; read-out: S1P4 EC50. The method in brief: as §1

A further test deals with T3, human S1PR1 (Homo sapiens, UniProt P21453).
T3 construct: host or cells: CHO-K1
In words: Intracellular Ca2+ release (FLIPR) agonist potency, S1P1. The conditions noted are these: recombinant CHO-K1 cells expressing human S1PR1, aequorin, Gq/i5; Calcium 5 FLIPR; read-out: S1P1 EC50. The method, boiled down: as §1

T1 sequence (Q9H228 whole entry): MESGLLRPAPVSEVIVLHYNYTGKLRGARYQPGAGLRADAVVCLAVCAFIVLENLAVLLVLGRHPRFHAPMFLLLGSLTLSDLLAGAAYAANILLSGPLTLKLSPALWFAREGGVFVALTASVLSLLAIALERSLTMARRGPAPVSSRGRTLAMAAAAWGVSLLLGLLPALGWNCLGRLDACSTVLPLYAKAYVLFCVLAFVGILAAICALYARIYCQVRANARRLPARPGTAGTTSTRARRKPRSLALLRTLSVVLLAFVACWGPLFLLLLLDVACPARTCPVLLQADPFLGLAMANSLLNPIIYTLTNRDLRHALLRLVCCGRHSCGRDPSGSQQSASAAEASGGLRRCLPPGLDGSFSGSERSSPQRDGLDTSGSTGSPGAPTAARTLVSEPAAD
T3 sequence (P21453 whole entry): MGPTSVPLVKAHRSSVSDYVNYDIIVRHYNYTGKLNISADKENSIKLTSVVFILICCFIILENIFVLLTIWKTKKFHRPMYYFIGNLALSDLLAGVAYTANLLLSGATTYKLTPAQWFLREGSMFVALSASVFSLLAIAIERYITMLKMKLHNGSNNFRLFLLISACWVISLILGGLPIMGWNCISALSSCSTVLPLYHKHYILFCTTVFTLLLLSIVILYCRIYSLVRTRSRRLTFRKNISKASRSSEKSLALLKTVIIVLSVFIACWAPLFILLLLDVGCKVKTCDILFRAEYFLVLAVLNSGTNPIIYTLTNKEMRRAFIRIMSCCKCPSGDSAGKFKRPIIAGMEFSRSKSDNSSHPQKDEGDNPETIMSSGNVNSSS

For `O=C(O)CCOC1CCc2cc(OCc3ccccc3Cl)ccc2C1` (stereo not drawn) [Compound 188, 3-[6-[(2-chlorophenyl)methoxy]tetralin-2-yl]oxypropanoic acid], the values for the EC50 at human S1PR5, at human S1PR4 and at human S1PR1 were 1000 to 10000 nM, over 1000 nM and over 1000 nM, respectively.

For `O=C(O)CCOC1CCc2cc(OCc3cccc(Cl)c3Cl)ccc2C1` (stereo not drawn) [Compound 189, 3-[6-[(2,3-dichlorophenyl)methoxy]tetralin-2-yl]oxypropanoic acid], the results for the EC50 on human S1PR5, on human S1PR4 and at human S1PR1 were 1000 to 10000 nM, over 1000 nM and over 1000 nM, respectively.

Regarding `O=C(O)CCOC1CCc2cc(OCc3ccccc3OC(F)(F)F)ccc2C1` (stereo not drawn) [Compound 190, 3-[6-[[2-(trifluoromethoxy)phenyl]methoxy]tetralin-2-yl]oxypropanoic acid], the EC50 is 1000 to 10000 nM at human S1PR5, over 1000 nM on human S1PR4 and over 1000 nM at human S1PR1.

For the compound `O=C(O)CCOC1CCc2cc(OCc3ccc(Cl)cc3)ccc2C1` (stereo not drawn) [Compound 191, 3-[6-[(4-chlorophenyl)methoxy]tetralin-2-yl]oxypropanoic acid], the figures for the concentration for a half-maximal effect (EC50) on human S1PR5, at human S1PR4 and on human S1PR1 were 1000 to 10000 nM, over 1000 nM and over 1000 nM, respectively.

With `CC(C)(C)c1ccc(COc2ccc3c(c2)CCC(OCCC(=O)O)C3)cc1` (stereo not drawn) [Compound 192, 3-[6-[(4-tert-butylphenyl)methoxy]tetralin-2-yl]oxypropanoic acid], the 50% effective concentration (EC50) on human S1PR5 was 1000 to 10000 nM; on human S1PR4, over 1000 nM; on human S1PR1 it was over 1000 nM.

Consider `O=C(O)CCOC1CCc2cc(OCc3ccc(F)cc3)ccc2C1` (stereo not drawn) [Compound 194, 3-[6-[(4-fluorophenyl)methoxy]tetralin-2-yl]oxypropanoic acid], for which the EC50 is 1000 to 10000 nM on human S1PR5, over 1000 nM on human S1PR4 and over 1000 nM on human S1PR1.

In the case of `Cc1ccc(C(F)(F)F)c(COc2ccc3c(c2)CCC(OCC(=O)O)C3)c1` (stereo not drawn) [Compound 195, 2-[6-[[5-methyl-2-(trifluoromethyl)phenyl]methoxy]tetralin-2-yl]oxyacetic acid], the half-maximal effective concentration (EC50) is 1000 to 10000 nM on human S1PR5, over 1000 nM at human S1PR4 and over 1000 nM at human S1PR1.

As for `O=C(O)COC1CCc2cc(OCc3ccccc3C(F)(F)F)ccc2C1` (stereo not drawn) [Compound 196, 2-[6-[[2-(trifluoromethyl)phenyl]methoxy]tetralin-2-yl]oxyacetic acid], the concentration giving a half-maximal response (EC50) is 100 to 1000 nM on human S1PR5, over 1000 nM at human S1PR4 and over 1000 nM at human S1PR1.

With `O=C(O)COC1CCc2cc(OCc3cccc(F)c3)ccc2C1` (stereo not drawn) [Compound 198, 2-[6-[(3-fluorophenyl)methoxy]tetralin-2-yl]oxyacetic acid], the EC50 at human S1PR5 was 1000 to 10000 nM; on human S1PR4 it was over 1000 nM; at human S1PR1 it was over 1000 nM.

As for `O=C(O)COC1CCc2cc(OCc3ccc(Cl)c(Cl)c3)ccc2C1` (stereo not drawn) [Compound 199, 2-[6-[(3,4-dichlorophenyl)methoxy]tetralin-2-yl]oxyacetic acid], the EC50 at human S1PR5 is 1000 to 10000 nM; at human S1PR4, over 1000 nM; at human S1PR1, over 1000 nM.

Consider `Cc1c(COc2ccc3c(c2)CCC(OCC(=O)O)C3)cccc1C(F)(F)F` (stereo not drawn) [Compound 200, 2-[6-[[2-methyl-3-(trifluoromethyl)phenyl]methoxy]tetralin-2-yl]oxyacetic acid], for which the concentration for a half-maximal effect (EC50) at human S1PR5 is 1000 to 10000 nM; on human S1PR4, over 1000 nM; at human S1PR1, over 1000 nM.

On to `CSc1ccc(COc2ccc3c(c2)CCC(OCC(=O)O)C3)cc1` (stereo not drawn) [Compound 201, 2-[6-[(4-methylsulfanylphenyl)methoxy]tetralin-2-yl]oxyacetic acid], for which the concentration for a half-maximal effect (EC50) on human S1PR5 is 1000 to 10000 nM; on human S1PR4, over 1000 nM; on human S1PR1, over 1000 nM.

With `O=C(O)COC1CCc2cc(OCc3ccc(OC(F)(F)F)cc3)ccc2C1` (stereo not drawn) [Compound 203, 2-[6-[[4-(trifluoromethoxy)phenyl]methoxy]tetralin-2-yl]oxyacetic acid], the concentration giving a half-maximal response (EC50) at human S1PR5 is 1000 to 10000 nM; on human S1PR4, over 1000 nM; at human S1PR1, over 1000 nM.

For `O=C(O)COC1CCc2cc(OCc3cccc(F)c3F)ccc2C1` (stereo not drawn) [Compound 204, 2-[6-[(2,3-difluorophenyl)methoxy]tetralin-2-yl]oxyacetic acid], the EC50 was 1000 to 10000 nM at human S1PR5, over 1000 nM at human S1PR4 and over 1000 nM on human S1PR1.

For the compound `O=C(O)COC1CCc2cc(OCc3cccc(Cl)c3)ccc2C1` (stereo not drawn) [Compound 205, 2-[6-[(3-chlorophenyl)methoxy]tetralin-2-yl]oxyacetic acid], the half-maximal effective concentration (EC50) on human S1PR5 was 100 to 1000 nM; on human S1PR4 it was over 1000 nM; at human S1PR1, over 1000 nM.

Take `O=C(O)COC1CCc2cc(OCc3ccccc3Cl)ccc2C1` (stereo not drawn) [Compound 206, 2-[6-[(2-chlorophenyl)methoxy]tetralin-2-yl]oxyacetic acid]: the figures for the concentration for a half-maximal effect (EC50) at human S1PR5, at human S1PR4 and at human S1PR1 were 1000 to 10000 nM, over 1000 nM and over 1000 nM, respectively.

On to `O=C(O)COC1CCc2cc(OCc3ccccc3OC(F)(F)F)ccc2C1` (stereo not drawn) [Compound 208, 2-[6-[[2-(trifluoromethoxy)phenyl]methoxy]tetralin-2-yl]oxyacetic], for which the EC50 on human S1PR5 was 100 to 1000 nM; at human S1PR4, over 1000 nM; on human S1PR1 it was over 1000 nM.

With `O=C(O)COC1CCc2cc(OCc3ccc(Cl)cc3)ccc2C1` (stereo not drawn) [Compound 209, 2-[6-[(4-chlorophenyl)methoxy]tetralin-2-yl]oxyacetic acid], the EC50 on human S1PR5 was 1000 to 10000 nM; at human S1PR4, over 1000 nM; on human S1PR1 it was over 1000 nM.

For `O=C(O)COC1CCc2cc(OCc3ccc(F)c(F)c3)ccc2C1` (stereo not drawn) [Compound 212, 2-[6-[(3,4-difluorophenyl)methoxy]tetralin-2-yl]oxyacetic acid], the 50% effective concentration (EC50) at human S1PR5 was 1000 to 10000 nM; at human S1PR4 it was over 1000 nM; at human S1PR1, over 1000 nM.

With `O=C(O)COC1CCc2cc(OCc3ccc(F)cc3)ccc2C1` (stereo not drawn) [Compound 214, 2-[6-[(4-fluorophenyl)methoxy]tetralin-2-yl]oxyacetic acid], the EC50 on human S1PR5 was 1000 to 10000 nM; at human S1PR4, over 1000 nM; on human S1PR1, over 1000 nM.

For `CCc1cccc(Cl)c1COc1ccc2c(c1)CCC(N1CC(C(=O)N(C)OC)C1)C2` (stereo not drawn) [Compound 217, 1-[6-[(2-chloro-6-ethyl-phenyl)methoxy]tetralin-2-yl]-N-methoxy-N-methyl-azetidine-3-carboxamide], the figures for the EC50 on human S1PR5, at human S1PR4 and at human S1PR1 were 100 to 1000 nM, over 1000 nM and over 1000 nM, respectively.

Regarding `O=C(O)C1CN(C2COc3cc(OCc4c(Cl)cccc4Cl)c(Br)cc3C2)C1` (stereo not drawn) [Compound 221, 1-[6-bromo-7-[(2,6-dichlorophenyl)methoxy]chroman-3-yl]azetidine-3-carboxylic acid], the EC50 was 10 to 100 nM at human S1PR5, over 1000 nM at human S1PR4 and over 1000 nM at human S1PR1.

Consider `Cc1cc2c(cc1OCc1c(Cl)cccc1Cl)OCC(N1CC(C(=O)O)C1)C2` (stereo not drawn) [Compound 222, 1-[7-[(2,6-dichlorophenyl)methoxy]-6-methyl-chroman-3-yl]azetidine-3-carboxylic acid], for which the EC50 is 10 to 100 nM on human S1PR5, over 1000 nM at human S1PR4 and over 1000 nM on human S1PR1.

Turning to `O=C(O)C1CN(C2CCOc3cc(OCc4c(Cl)cccc4Cl)c(F)cc32)C1` (stereo not drawn) [Compound 223, 1-[7-[(2,6-dichlorophenyl)methoxy]-6-fluoro-chroman-4-yl]azetidine-3-carboxylic acid], the figures for the EC50 on human S1PR5, on human S1PR4 and at human S1PR1 were under 10 nM, over 1000 nM and over 1000 nM, respectively.

With `O=C(O)C1CN(C2COc3c(cccc3OCc3c(Cl)cccc3Cl)C2)C1` (stereo not drawn) [Compound 225, 1-[8-[(2,6-dichlorophenyl)methoxy]chroman-3-yl]azetidine-3-carboxylic acid], the EC50 was 1000 to 10000 nM on human S1PR5, over 1000 nM at human S1PR4 and over 1000 nM at human S1PR1.

As to `O=C(O)C1CN(C2COc3cc(OCCc4ccccc4)ccc3C2)C1` (stereo not drawn) [Compound 226, 1-(7-phenethyloxychroman-3-yl)azetidine-3-carboxylic acid], the 50% effective concentration (EC50) on human S1PR5 was 1000 to 10000 nM; on human S1PR4 it was over 1000 nM; at human S1PR1 it was over 1000 nM.

In the case of `O=C(O)C1CN(C2COc3cc(OCCc4ccccc4Cl)ccc3C2)C1` (stereo not drawn) [Compound 227, 1-[7-[2-(2-chlorophenyl)ethoxy]chroman-3-yl]azetidine-3-carboxylic acid], the EC50 on human S1PR5 was 1000 to 10000 nM; on human S1PR4 it was over 1000 nM; on human S1PR1, over 1000 nM.

With `O=C(O)C1CN(C2COc3cc(OCCc4ccc(Cl)cc4)ccc3C2)C1` (stereo not drawn) [Compound 228, 1-[7-[2-(4-chlorophenyl)ethoxy]chroman-3-yl]azetidine-3-carboxylic acid], the values for the EC50 at human S1PR5, on human S1PR4 and on human S1PR1 were 1000 to 10000 nM, over 1000 nM and over 1000 nM, respectively.

As to `O=C(O)C1CN(C2COc3cc(Oc4c(Cl)cccc4Cl)ccc3C2)C1` (stereo not drawn) [Compound 229, 1-[7-(2,6-dichlorophenoxy)chroman-3-yl]azetidine-3-carboxylic acid], the concentration giving a half-maximal response (EC50) is 1000 to 10000 nM at human S1PR5, over 1000 nM on human S1PR4 and over 1000 nM on human S1PR1.

A word on the EC50: it is the concentration giving half of the maximal effect.
